Usually ΔTm stands for the change in melting temperature against a reference sample.

Calls of active or inactive are those of the source. The rule behind the calls is not given here.

The test system of one experiment is CCRF S-180. Description: Antitumor activity against Mus musculus (mouse) S180 cells xenografted in ICR Mus musculus (mouse) assessed as tumor growth inhibition at 89 umol/kg, ip qd for 7 days measured after 24 hr of last dose relative to control. Format: functional. To be noted: CCRF S-180, ip, read-out: TGI.
The test system of experiment [1] is DNA. Description: Binding affinity to Bos taurus (calf) thymus DNA assessed as melting temperature at 20 uM (reference value: 60.3 degC). It counts as nucleic-acid assay.
Experiment [2] deals with DNA. Description: Binding affinity to Bos taurus (calf) thymus DNA assessed as change in DNA viscosity. Format: nucleic-acid assay.
For experiment [3], the system named is DNA. Description: Binding affinity to Bos taurus (calf) thymus DNA assessed as change melting temperature at 20 uM. It counts as nucleic-acid assay.
The test system of experiment [4] is DNA. Description: Binding affinity to Bos taurus (calf) thymus DNA assessed as bathochromic shift at 0.5 uM by fluorescence quenching assay. Format: nucleic-acid assay.
For experiment [5], the system named is DNA. Description: Binding affinity to Bos taurus (calf) thymus DNA assessed as decrease in fluorescence intensity at 0.5 uM by fluorescence quenching assay. More on the design: scale not given: the % may be the effect or the level left. Format: nucleic-acid assay.
Experiment [6] concerns DNA. Description: Binding affinity to Bos taurus (calf) thymus DNA assessed as hypsochromic shift at 20 uM by UV spectra analysis. Format: nucleic-acid assay.
The subject of experiment [7] is DNA. Description: Binding affinity to Bos taurus (calf) thymus DNA assessed as negative band intensity at 100 uM after 24 hr by CD spectra analysis (reference value: -15209 +/- 245 deg cm2/dmol'-1). Format: nucleic-acid assay.
The subject of experiment [8] is DNA. Description: Binding affinity to Bos taurus (calf) thymus DNA assessed as hypochromic effect at 20 uM by UV spectra analysis. Format: nucleic-acid assay.
The subject of experiment [9] is DNA. Description: Binding affinity to Bos taurus (calf) thymus DNA assessed as positive band intensity at 100 uM after 24 hr by CD spectra analysis (reference value: 21429 +/- 276 deg cm2/dmol'-1). Format: nucleic-acid assay.

As to `Nc1ccn([C@@H]2O[C@H](CO)[C@@H](O)[C@@H]2O)c(=O)n1` [CYTARABINE], the inhibition in vivo at 89 µmol/kg with CCRF S-180 turned out to be 54.8%.
On to `O=C(O)c1cc2c3ccccc3n(Cc3ccccc3)c2c(CCN[C@@H](Cc2ccc(O)cc2)C(=O)O)n1`, for which the Tm with DNA [1] is 72.2 °C. In addition, the outcome in the experiment on DNA [2] was Active. In addition, the ΔTm in the experiment on DNA [3] was found to be 11.9 °C. The Activity in the experiment with DNA [4] came to 4.4 nm; in the experiment on DNA [5], 58.7%; with DNA [6], 4.8 nm; with DNA [8], 30.5%. The molecular ellipticity in the experiment on DNA [7] is -1080 deg.cm2/dmol; in the experiment on DNA [9] it was 28900 deg.cm2/dmol. Moreover, the inhibition in vivo at 89 µmol/kg in the experiment with CCRF S-180 stood at 48.6%.
Take `C[C@@H](O)[C@H](NCCc1nc(C(=O)O)cc2c3ccccc3n(Cc3ccccc3)c12)C(=O)O`: in the experiment with DNA [1], the Tm was 65.4 °C. Further, the result in the experiment on DNA [2] was Active. The ΔTm in the experiment on DNA [3] was found to be 4.9 °C. Also, the Activity in the experiment on DNA [4] worked out at 2.2 nm; in the experiment with DNA [5] it was 32.6%; with DNA [6] it was 0 nm; with DNA [8], 0%. Further, the figures for the molecular ellipticity with DNA [7] and with DNA [9] were -5800 deg.cm2/dmol and 17400 deg.cm2/dmol, respectively. In addition, in the experiment on CCRF S-180, the inhibition in vivo at 89 µmol/kg was -29.1%.
On to `O=C(O)C[C@H](NCCc1nc(C(=O)O)cc2c3ccccc3n(Cc3ccccc3)c12)C(=O)O`, for which, in the experiment on DNA [1], the Tm came to 73.2 °C. In addition, the outcome with DNA [2] was Active. Also, in the experiment on DNA [3], the shift in melting temperature (ΔTm) came to 12.9 °C. Also, the Activity amounted to 8.2 nm in the experiment with DNA [4], 63.9% in the experiment on DNA [5], 3.4 nm in the experiment on DNA [6] and 32% in the experiment with DNA [8]. For the same compound, the molecular ellipticity with DNA [7] is -36300 deg.cm2/dmol; in the experiment with DNA [9], 2750 deg.cm2/dmol. Besides, the inhibition in vivo at 89 µmol/kg in the experiment on CCRF S-180 amounted to 34.7%.
As to `O=C(O)c1cc2c3ccccc3n(Cc3ccccc3)c2c(CCN[C@@H](CO)C(=O)O)n1`, the Tm with DNA [1] came to 71.1 °C. Moreover, the outcome with DNA [2] was Active. Also, in the experiment on DNA [3], the ΔTm turned out to be 10.8 °C. Also, the Activity in the experiment with DNA [4] was 4.6 nm; in the experiment with DNA [5], 42.4%; in the experiment on DNA [6] it was 4.8 nm; in the experiment with DNA [8] it was 29.6%. Also, the molecular ellipticity in the experiment with DNA [7] was -23700 deg.cm2/dmol; in the experiment with DNA [9] it was 10100 deg.cm2/dmol. The inhibition in vivo at 89 µmol/kg in the experiment on CCRF S-180 is 35.3%.

(Values after ChEMBL document CHEMBL3044617, “N-[2(3-Carboxyl-9-benzyl-carboline-1-yl)ethyl-1-yl]-amino acids: correlation of spectral property with in vivo anti-tumor activity” (2012).)
